From article PMC6694038, “Pharmacogenomic–pharmacokinetic study of selective estrogen-receptor modulators with intra-patient dose escalation in breast cancer” (Breast Cancer (Tokyo, Japan), 2019)

Assays:
[1] = Plasma concentrations of TAM, TOR and their metabolites by LC–MS/MS (screening study)
[2] = weighting of plasma concentration; cited from earlier work
[3] = Hot flush grade (CTCAE v3.0) in the screening study; assay type: in vivo, breast cancer patients
Source text: We obtained data on compliance and the grade of hot flush as defined by the Common Terminology Criteria for Adverse Events v3.0.

[4] = patients on TAM 20 mg a day, N=182
[5] = 14 patients of the dose-escalation study

| Compound | Plasma concentration, max ([1]; patients on TOR 40 mg, N=61) [ng/mL] | Plasma concentration, mean ([1]; patients on TOR 40 mg, N=61) [ng/mL] | Plasma concentration, median ([1]; patients on TOR 40 mg, N=61) [ng/mL] | Plasma concentration, min ([1]; patients on TOR 40 mg, N=61) [ng/mL] | Plasma concentration, max ([1]; patients on TOR 120 mg, N=27) [ng/mL] | Plasma concentration, mean ([1]; patients on TOR 120 mg, N=27) [ng/mL] | Plasma concentration, median ([1]; patients on TOR 120 mg, N=27) [ng/mL] | Plasma concentration, min ([1]; patients on TOR 120 mg, N=27) [ng/mL] | In vitro activity factor in the total activity of TOR (TOR = 1.0) [2] | Plasma concentration, max [1, 4] [ng/mL] | Plasma concentration, mean [1, 4] [ng/mL] | Plasma concentration, median [1, 4] [ng/mL] | Plasma concentration, min [1, 4] [ng/mL] | In vitro activity factor in the total activity of TAM (TAM = 1.0) [2] | other results |
| --- | --- | --- | --- | --- | --- | --- | --- | --- | --- | --- | --- | --- | --- | --- | --- |
| CNCCOc1ccc(/C(=C(/CCCl)c2ccccc2)c2ccc(O)cc2)cc1 [4OH-NDM-TOR] | 68.8 | 15.4 | 13.4 | 4.5 | 52.9 | 32.6 | 34.3 | 11.5 | 91.9 | – | – | – | – | – | – |
| CC/C(=C(\c1ccc(O)cc1)c1ccc(OCCN(C)C)cc1)c1ccccc1 [4OH-TAM] | – | – | – | – | – | – | – | – | – | 9.5 | 3.6 | 3.3 | 0.2 | 116 | – |
| CN(C)CCOc1ccc(/C(=C(/CCCl)c2ccccc2)c2ccc(O)cc2)cc1 [4OH-TOR] | 16.4 | 8.1 | 6.9 | 2.4 | 31.2 | 16.0 | 14.6 | 5.5 | 98.0 | – | – | – | – | – | – |
| CC/C(=C(\c1ccccc1)c1ccc(OCCNC)cc1)c1ccccc1 [NDM-TAM] | – | – | – | – | – | – | – | – | – | 1090.0 | 283.2 | 271.0 | 59.2 | 0.655 | – |
| CNCCOc1ccc(/C(=C(/CCCl)c2ccccc2)c2ccccc2)cc1 [NDM-TOR] | 2820.0 | 1373.7 | 1350.0 | 601.0 | 5430.0 | 3594.4 | 3500.0 | 1380.0 | 0.764 | – | – | – | – | – | – |
| CC/C(=C(\c1ccccc1)c1ccc(OCCN(C)C)cc1)c1ccccc1 [TAM, tamoxifen] | – | – | – | – | – | – | – | – | – | 552.0 | 174.7 | 163.0 | 38.5 | 1.0 | Hot flush grade 0 on TAM 20 mg, % of patients [3, 5]: 57.1%; Hot flush grade 0 on TAM 20 mg, patients [3, 5]: 8; Hot flush grade 1 on TAM 20 mg, % of patients [3, 5]: 28.6%; Hot flush grade 1 on TAM 20 mg, patients [3, 5]: 4; Hot flush grade 2 on TAM 20 mg, % of patients [3, 5]: 14.3%; Hot flush grade 2 on TAM 20 mg, patients [3, 5]: 2; Hot flush grade 0, % of patients ([3]; TAM 20 mg, screening study): 56.8%; Hot flush grade 1, % of patients ([3]; TAM 20 mg, screening study): 31.4%; Hot flush grade 1, patients ([3]; TAM 20 mg, screening study): 58; Hot flush grade 2, % of patients ([3]; TAM 20 mg, screening study): 11.4%; Hot flush grade 2, patients ([3]; TAM 20 mg, screening study): 21; Hot flush grade 3, % of patients ([3]; TAM 20 mg, screening study): 0.5%; Hot flush grade 3, patients ([3]; TAM 20 mg, screening study): 1 |
